The values that follow come from US6218393A, “Anthranilic acid derivatives as multi drug resistance modulators” (priority 1997, dated 2001).

The structures appear in SMILES notation.

The subject of series [1] is AR 1.0 cells. Briefly: Potentiation of doxorubicin toxicity: proliferation assay (sulphorhodamine B). The format is cell-based, mouse. An excerpt:
(a) Selected compounds of formula (I) were examined for their ability to potentiate the toxicity of doxorubicin in AR 1.0 cells.

Series [2] relates to AR 1.0 cells. The series is described as follows: Drug accumulation assay: daunorubicin accumulation in AR 1.0 cells. Conditions: Mus musculus, 100% = accumulation with verapamil 100 μM, 1 hr, 37° C. The format is cell-based. The gist of the method: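 Daunorubicin accumulation was measured in cells plated 48 h beforehand. These were AR 1.0 cells, an MDR-resistant derivative of mouse EMT6 mammary carcinoma, cultured at 37 °C in 5% CO2 in RPMI 1640 plus 10% foetal calf serum and 2 mM glutamine.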

Series [3] has as its system AR 1.0 cells. The series is described as follows: Potentiation index with doxorubicin titration. The format is cell-based, mouse. The following applies: for Potentiation Index at RMA concentration 100 nM: Table C2, RMA 100 nM. The method, boiled down: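 Doxorubicin IC50 in AR 1.0 cells (MDR subline of EMT6 mouse mammary carcinoma) determined by sulphorhodamine B after 4-day culture across 0.263 nM-17.24 μM, with and without a fixed dose of test compound; their ratio gives the PI.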

[4] abbreviates: Mus musculus, 96 h, compound alone, four day proliferation, read-out: Compound Toxicity (IC50).
Setting [5] is: with fixed doxorubicin 0.34 μm, four days, 5760 min, read-out: Toxicity with Cytotoxic Agent (IC50).

A word on the IC50: it is the point on the concentration scale where inhibition reaches its midpoint. For `COc1cc2c(cc1OC)CN(CCc1ccc(NC(=O)c3ccccc3NC(=O)c3ccc(C)nc3)cc1)CC2` [compound 9557, N-(2-{4-[2-(6,7-Dimethoxy-3,4-dihydro-1H isoquinolin-2-yl)-ethyl]-phenylcarbamoyl}phenyl)-6-methyl-nicotinamide], the results for the IC50 in the series on AR 1.0 cells [1] (setting [4]), in the series on AR 1.0 cells [1] (setting [5]) and in the series with AR 1.0 cells [2] were 9000 nM, 20 nM and 12 nM, respectively. In addition, the “Potentiation Index at RMA concentration 10 nM” value in the series with AR 1.0 cells [3] (Table C2, RMA 10 nM) is 1.2. The “Potentiation Index at RMA concentration 100 nM” value with AR 1.0 cells [3] was 100.

As to `COc1cc2c(cc1OC)CN(CCc1ccc(NC(=O)c3cc(O)ccc3NC(=O)c3cnc4ccccc4n3)cc1)CC2` [compound 9554, Quinoxaline-2-carboxylic acid (2-{4-[2-(6,7-dimethoxy-3,4-dihydro-1H-isoquinolin-2-yl)-ethyl]-phenylcarbamoyl}-4-hydroxy-phenyl)-amide], the IC50 in the series on AR 1.0 cells [1] (setting [4]) turned out to be 3000 nM; with AR 1.0 cells [1] (setting [5]), 50 nM; in the series on AR 1.0 cells [2] it was 990 nM. Besides, the “Potentiation Index at RMA concentration 100 nM” value with AR 1.0 cells [3] was determined as 90.

Regarding `COc1cc2c(cc1OC)CN(CCNC(=O)c1cccc(O)c1NC(=O)c1ccc(C(C)C)cc1)CC2` [compound 9424, 2-(4-Isopropyl-benzoylamino)-N-[2-(6,7-dimethoxy-3,4-dihydro-1H-isoquinolin-2-yl)-ethyl]-3-hydroxy-benzamide], the IC50 stood at 39000 nM in the series on AR 1.0 cells [1] (setting [4]), 2600 nM in the series on AR 1.0 cells [1] (setting [5]) and 2500 nM in the series on AR 1.0 cells [2]. Also, in the series on AR 1.0 cells [3] (Table C2, RMA 500 nM), the “Potentiation Index at RMA concentration 500 nM” value is 37.

Turning to `COc1cc2c(cc1OC)CN(CCc1ccc(NC(=O)c3ccccc3NC(=O)c3cccc(OC(C)=O)c3)cc1)CC2` [compound 9540, Acetic acid 3-(2-{4-[2-(6,7-dimethoxy-3,4-dihydro-1H-isoquinolin-2-yl)-ethyl]-phenylcarbamoyl}-phenylcarbamoyl)-phenyl ester], the IC50 in the series with AR 1.0 cells [1] (setting [4]) amounted to 6200 nM; in the series with AR 1.0 cells [1] (setting [5]), 1000 nM; with AR 1.0 cells [2], 1200 nM.

For the compound `COc1cc2c(cc1OC)CN(CCc1ccc(NC(=O)c3ccccc3NC(=O)c3ccccn3)cc1)CC2` [compound 9472, Pyridine-2-carboxylic acid (2-{4-[2-(6,7-dimethoxy-3,4-dihydro-1H-isoquinolin-2-yl)-ethyl]-phenylcarbamoyl}-phenyl)-amide], the half-inhibitory concentration (IC50) in the series on AR 1.0 cells [1] (setting [4]) is 6500 nM; with AR 1.0 cells [1] (setting [5]), 120 nM; in the series with AR 1.0 cells [2] it was 500 nM.

On to `COc1cc2c(cc1OC)CN(CCc1ccc(NC(=O)c3ccccc3NC(=O)c3ccc4ccccc4n3)cc1)CC2` [compound 9545, Quinoline-2-carboxylic acid (2-{4.-[2-(6,7-dimethoxy-3,4-dihydro-1H-isoquinolin-2-yl)-ethyl]-phenylcarbamoyl}-phenyl)-amide], for which the concentration for half-maximal inhibition (IC50) with AR 1.0 cells [1] (setting [4]) was 1700 nM; in the series with AR 1.0 cells [2], 800 nM.

Regarding `COc1cc2c(cc1OC)CN(CCNC(=O)c1ccccc1NC(=O)c1ccccc1)CC2` [compound 9351, 2-Benzoylamino-N-[2-(6,7-dimethoxy-3,4-dihydro-1H-isoquinolin-2-yl)-ethyl]-benzamide], the figures for the IC50 in the series with AR 1.0 cells [1] (setting [4]), in the series on AR 1.0 cells [1] (setting [5]) and in the series on AR 1.0 cells [2] were 43000 nM, 1300 nM and 9000 nM, respectively.

Take `COc1cc2c(cc1OC)CN(CCNC(=O)c1ccccc1NC(=O)c1ccsc1)CC2` [compound 9365, Thiophene-3-carboxylic acid {2-[2-(6,7-dimethoxy-3,4-dihydro-1H-isoquinolin-2-yl)-ethylcarbamoyl]-phenyl}-amide]: the IC50 is 42000 nM in the series with AR 1.0 cells [1] (setting [4]), 800 nM in the series on AR 1.0 cells [1] (setting [5]) and 2000 nM in the series with AR 1.0 cells [2].

`COc1cc2c(cc1OC)CN(CCNC(=O)c1ccccc1NC(=O)c1ccc(Br)cc1)CC2` [compound 9380, 2-(4-Bromo-benzoylamino)-N-[2-(6,7-dimethoxy-3,4-dihydro-1H-isoquinolin-2-yl)-ethyl]-benzamide]: the results for the IC50 in the series with AR 1.0 cells [1] (setting [4]), in the series on AR 1.0 cells [1] (setting [5]) and in the series on AR 1.0 cells [2] were 40000 nM, 500 nM and 900 nM, respectively.

For `COc1cc2c(cc1OC)CN(CCc1ccc(NC(=O)c3ccccc3NC(=O)c3ccc(OC(C)=O)cc3)cc1)CC2` [compound 9548, Acetic acid 4-(2-{4-[2-(6,7-dimethoxy-3,4-dihydro-1H-isoquinolin-2-yl)-ethyl]-phenylcarbamoyl}-phenylcarbamoyl)-phenyl ester], the IC50 came to 1800 nM with AR 1.0 cells [1] (setting [4]), 1000 nM in the series with AR 1.0 cells [1] (setting [5]) and 4900 nM in the series with AR 1.0 cells [2].

`COc1cc2c(cc1OC)CN(CCNC(=O)c1ccccc1NC(=O)c1ccc([N+](=O)[O-])cc1)CC2` [compound 9381, 2-(4-Nitro-benzoylamino)-N-[2-(6,7-dimethoxy-3,4-dihydro-1H-isoquinolin-2-yl)-ethyl]-benzamide]: the IC50 in the series with AR 1.0 cells [1] (setting [4]) is 50000 nM; in the series with AR 1.0 cells [1] (setting [5]), 1500 nM; with AR 1.0 cells [2], 3000 nM.

As for `CCC(=O)c1cnc(C(=O)Nc2ccccc2C(=O)Nc2ccc(CCN3CCc4cc(OC)c(OC)cc4C3)cc2)cn1` [compound 9569, 5-Propionyl-pyrazine-2-carboxylic acid (2-{4-[2-(6,7-dimethoxy-3,4-dihydro-1H-isoquinolin-2-yl)-ethyl]-phenylcarbamoyl}-phenyl)-amide], the figures for the IC50 in the series with AR 1.0 cells [1] (setting [4]), with AR 1.0 cells [1] (setting [5]) and with AR 1.0 cells [2] were 190 nM, 8 nM and 930 nM, respectively.

For the compound `COc1cc2c(cc1OC)CN(CCNC(=O)c1cc(-c3ccccc3)ccc1NC(=O)c1ccc(C(C)C)cc1)CC2` [compound 9432, 2-(4-Isopropyl-benzoylamino)-N-[2-(6,7-dimethoxy-3,4-dihydro-1H-isoquinolin-2-yl)-ethyl]-5-phenyl-benzamide], the IC50 worked out at 35000 nM in the series with AR 1.0 cells [1] (setting [4]), 200 nM in the series on AR 1.0 cells [1] (setting [5]) and 3200 nM in the series on AR 1.0 cells [2].

For `COc1cc2c(cc1OC)CN(CCNC(=O)c1ccccc1NC(=O)c1cc3ccccc3[nH]1)CC2` [compound 9367], the IC50 with AR 1.0 cells [1] (setting [4]) is 15000 nM; in the series with AR 1.0 cells [1] (setting [5]) it was 500 nM; in the series with AR 1.0 cells [2], 1000 nM.

As for `COc1cc2c(cc1OC)CN(CCc1ccc(NC(=O)c3ccccc3NC(=O)c3cccc(O)c3)cc1)CC2` [compound 9549, 2-(3-Hydroxy-benzoylamino)-N-{4-[2-(6,7-dimethoxy-3,4-dihydro-1H-isoquinolin-2-yl)-ethyl]-phenyl}-benzanlide], the IC50 in the series on AR 1.0 cells [1] (setting [4]) came to 5600 nM; in the series on AR 1.0 cells [1] (setting [5]) it was 520 nM; in the series with AR 1.0 cells [2], 4300 nM.

On to `COc1cc2c(cc1OC)CN(CCNC(=O)c1ccccc1NC(=O)c1ccc3ccccc3n1)CC2` [compound 9385, Quinoline-2-carboxylic acid {2-[2-(6,7-dimethoxy-3,4-dihydro-1H-isoquinolin-2-yl)-ethylcarbamoyl]-phenyl}-amide], for which the IC50 in the series with AR 1.0 cells [1] (setting [4]) was found to be 40000 nM; in the series with AR 1.0 cells [2] it was 1200 nM.

Consider `COc1cc2c(cc1OC)CN(CCc1ccc(NC(=O)c3ccccc3NC(=O)c3ccccc3OC(C)=O)cc1)CC2` [compound 9534, Acetic acid 2-(2-{4-[2-(6,7-dimethoxy-3,4-dihydro-1H-isoquinolin-2-yl)-ethyl]-phenylcarbamoyl}-phenylcarbamoyl)-phenyl ester], for which the IC50 with AR 1.0 cells [1] (setting [4]) came out at 6600 nM; with AR 1.0 cells [1] (setting [5]) it was 0.2 nM; in the series with AR 1.0 cells [2], 140 nM.

As for `COc1cc2c(cc1OC)CN(CCNC(=O)c1ccccc1NC(=O)c1nccc3ccccc13)CC2` [compound 9383, Isoquinoline-1-carboxylic acid {2-[2-(6,7-dimethoxy-3,4-dihydro-1H-isoquinolin-2-yl)-ethylcarbamoyl]-phenyl}-amide], the half-inhibitory concentration (IC50) in the series on AR 1.0 cells [1] (setting [4]) came out at 40000 nM; in the series with AR 1.0 cells [2], 2000 nM.

With `COc1cc2c(cc1OC)CN(CCc1ccc(NC(=O)c3ccccc3NC(=O)c3ccsc3)cc1)CC2` [compound 9492, Thiophene-3-carboxylic acid (2-{4-[2-(6,7-dimethoxy-3,4-dihydro-1H-isoquinolin-2-yl)-ethyl]-phenylcarbamoyl}-phenyl)-amide], the IC50 came out at 3000 nM with AR 1.0 cells [1] (setting [4]), 20 nM in the series on AR 1.0 cells [1] (setting [5]) and 1000 nM with AR 1.0 cells [2].

Take `COc1cc2c(cc1OC)CN(CCNC(=O)c1ccccc1NC(=O)c1cc3ccccc3cn1)CC2` [compound 9389, Isoquinoline-3-carboxylic acid {2-[2-(6,7-dimethoxy-3,4-dihydro-1H-isoquinolin-2-yl)-ethylcarbamoyl]-phenyl}-amide]: the values for the IC50 in the series with AR 1.0 cells [1] (setting [4]) and in the series on AR 1.0 cells [2] were 30000 nM and 1800 nM, respectively.

For `CCN(CC)c1ccc(C(=O)Nc2ccccc2C(=O)NCCN2CCc3cc(OC)c(OC)cc3C2)cc1` [compound 9310, 2-(4-Diethylamino-benzoylamino)-N-[2-(6,7-dimethoxy-3,4-dihydro-1H-isoquinolin-2-yl)-ethyl]-benzamide], the results for the IC50 in the series on AR 1.0 cells [1] (setting [4]), in the series with AR 1.0 cells [1] (setting [5]) and with AR 1.0 cells [2] were 22000 nM, 240 nM and 1200 nM, respectively.

`COc1cc2c(cc1OC)CN(CCNC(=O)c1ccccc1NC(=O)c1cnc3ccccc3n1)CC2` [compound 9347, Quinoxaline-2-carboxylic acid {2-[2-(6,7-dimethoxy-3,4-dihydro-1H-isoquinolin-2-yl)-ethylcarbamoyl]-phenyl}-amide]: the IC50 with AR 1.0 cells [1] (setting [4]) was found to be 35000 nM; in the series on AR 1.0 cells [1] (setting [5]) it was 600 nM; in the series with AR 1.0 cells [2], 3000 nM.

`COc1cc2c(cc1OC)CN(CCNC(=O)c1ccc(N)cc1NC(=O)c1ccc(C(C)C)cc1)CC2` [compound 9435, 2-(4-Isopropyl-benzoylamino)-N-[2-(6,7-dimethoxy-3,4-dihydro-1H-isoquinolin-2-yl)-ethyl]-4-amino-benzamide]: the IC50 in the series on AR 1.0 cells [1] (setting [4]) was 9000 nM; in the series with AR 1.0 cells [1] (setting [5]) it was 400 nM; in the series on AR 1.0 cells [2], 1900 nM.
